# According to PubChem BioAssay (NCI):
#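 Results reflect a 48-hour exposure of cells in 96-well plates to compound at five concentrations. TGI: total growth inhibition.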
# What was measured:
# Test in all cases: inhibition of tumour cell growth, NCI panel, 48 h
# CCRF-CEM leukemia = system: CCRF-CEM leukemia
# DU-145 prostate = system: DU-145 prostate
# HOP-92 NSCLC = system: HOP-92 NSCLC
# HS 578T breast = system: HS 578T breast
# K-562 leukemia = system: K-562 leukemia
# MDA-MB-435 = system: MDA-MB-435
# NCI-H23 lung = system: NCI-H23 lung
# PC-3 prostate = system: PC-3 prostate
# SF-295 CNS = system: SF-295 CNS
# SNB-75 CNS = system: SNB-75 CNS
SMILES,TGI (CCRF-CEM leukemia) [µM],TGI (DU-145 prostate) [µM],TGI (HOP-92 NSCLC) [µM],TGI (HS 578T breast) [µM],TGI (K-562 leukemia) [µM],TGI (MDA-MB-435) [µM],TGI (NCI-H23 lung) [µM],TGI (PC-3 prostate) [µM],TGI (SF-295 CNS) [µM],TGI (SNB-75 CNS) [µM]
CCCNC(C#N)c1ccc(C(C#N)NCCC)cc1 (configuration not stated),> 100,> 100,> 100,> 100,> 100,> 100,> 100,> 100,> 100,–
O=C1COc2ccc([N+](=O)[O-])cc2C(=O)C1,> 10,> 10,> 10,> 10,> 10,> 10,> 10,> 10,> 10,–
O=C(c1ccccc1)c1ccc2nc(-c3c(Cl)c(Cl)c(Cl)c(Cl)c3C(=O)N/N=C/c3ccccc3)[nH]c2c1,> 100,> 100,> 100,> 100,> 100,90.8,80.9,> 100,88.7,92.6
O=c1[nH]nc(-c2ccccc2)n1/N=C/c1c(O)ccc2ccccc12,> 100,> 100,> 100,50.4,> 100,> 100,> 100,> 100,82.4,93.6
NC(=O)c1ccc2c(c1)S(=O)(=O)c1ccccc1C2=O,> 100,> 100,> 100,> 100,> 100,> 100,> 100,> 100,> 100,> 100
Cc1sc(/N=C/c2c[nH]c3ccccc23)c(C#N)c1C,58.3,> 100,> 100,> 100,> 100,> 100,> 100,> 100,> 100,> 100
Nc1ccccc1N/C=C\C(=O)C(Cl)(Cl)Cl,> 100,75.1,47.8,> 100,78.9,28,59.9,> 100,75.1,72.2
O=[N+]([O-])c1ccc(N=Nc2c(O)c(S(=O)(=O)O)cc3cc(S(=O)(=O)O)ccc23)cc1,> 100,> 100,> 100,> 100,> 100,> 100,> 100,> 100,> 100,> 100
CCCCCCCCCCCCCCCCCCNc1ccn(C2OC(COP(=O)(O)OCC3OC(n4cc(C)c(=O)[nH]c4=O)CC3N=[N+]=[N-])C(O)C2O)c(=O)n1 (configuration not stated),48.7,> 100,> 100,49.8,50.3,63.2,36,22.5,32.6,58.5
CN(C)CCNC(=O)c1cccc2nc3c(nc12)-c1ccccc1C3=O,17.4,70,40.9,44,> 100,32.1,35.4,35,39,31
Cc1nc2ccc(S(=O)(=O)O)cc2c(=O)n1-c1ccc(C(=O)NN2C(=O)C(Cl)C2c2ccccc2O)cc1 (configuration not stated),> 100,> 100,> 100,> 100,> 100,> 100,> 100,> 100,> 100,> 100
C=CCNC(=O)NC1=CSC2=NC(=O)C3(NN12)c1ccccc1-c1ccccc13,> 10,> 10,> 10,> 10,> 10,> 10,> 10,> 10,> 10,> 10
O=c1c2cc(I)ccc2nc(Sc2ncccc2[N+](=O)[O-])n1Cc1ccccc1,> 100,> 100,77.6,92.3,> 100,> 100,> 100,> 100,> 100,> 100
CC(C)(C)C1(COC(=O)c2ccc(N)cc2)COC1,> 100,> 100,> 100,> 100,> 100,> 100,> 100,> 100,> 100,> 100
CC[C@H](C)[C@H]1NC(=O)[C@@H](NC(=O)[C@@H](CC(C)C)N(C)CC2CCCN2C(=O)C(C)=O)[C@@H](C)OC(=O)[C@H](Cc2ccc(OC)cc2)N(C)C(=O)C2CCCN2C(=O)[C@H](CC(C)C)NC(=O)[C@@H](C)C(=O)[C@H](C(C)C)OC(=O)C[C@@H]1O (some centres not stated),0.00404,0.0032,0.0292,0.0144,0.0158,0.0105,0.0591,0.00983,0.042,0.0108
C=CCSC1=N/C(=C\c2ccccc2)C(=O)N1CC=C,49.8,> 100,> 78.1,> 89.4,> 100,> 100,> 100,> 75.8,> 100,89.2
O=c1cc(N2CCCC2)[nH]c(=O)n1-c1cccc(C(F)(F)F)c1,> 100,> 100,> 100,> 100,> 100,> 100,> 100,> 100,> 100,> 100
CN(NC(=O)CCCl)C1=NCCCCN1,> 100,> 100,> 100,> 100,> 100,> 100,> 100,> 100,> 100,> 100
CN(C)Cc1cc(O)c(O)c(CN(C)C)c1,61.8,> 100,> 100,> 100,> 100,> 100,> 100,> 100,> 100,> 100
COC(OC)C1OC(CO)C(n2ccc(N)nc2=O)C1O (configuration not stated),> 100,> 100,> 100,> 100,> 100,> 100,> 100,> 100,> 100,> 100
O=C1c2c(nc3ccccc3c2-c2ccccc2)CN1Nc1ccccn1,> 100,> 100,> 79.4,67.4,> 100,> 100,> 100,> 100,> 100,> 92.8
C(=C\c1ccccc1)/C=N/c1nc2cc3sc(/N=C/C=C/c4ccccc4)nc3cc2s1,> 100,> 100,> 100,> 100,> 100,> 100,> 100,> 100,> 100,> 100
N#Cc1c(N2CCCC2)ncn(Cc2ccccc2)c1=O,> 100,> 100,> 100,> 100,> 100,> 100,–,> 100,> 100,> 100
NC(=S)Nc1[nH]c(=S)nc2c1SC1=N/C(=C\c3ccco3)C(=O)N12,> 85.4,> 100,> 100,> 100,> 66.5,> 100,> 100,> 100,> 100,> 100
COc1cc(/C=C2\N=C(c3ccccc3)N(c3nc4c(OC)ccc(OC)c4s3)C2=O)cc(OC)c1OC,> 100,> 100,> 100,> 100,> 100,> 100,> 100,> 100,> 100,> 100
CCOC(=O)/C=C(\C(=O)OCC)n1ccc(N)nc1=O,60.5,> 100,> 100,> 100,> 100,> 100,> 100,> 100,> 100,> 100
CCOc1nc(-c2ccccc2)cc(-c2ccc(N3CCOCC3)cc2)c1C#N,> 100,> 100,> 100,> 100,> 100,> 100,> 100,> 100,> 100,> 100
COc1cccc(N(CN2CC=CC2=O)C(C)=O)c1,> 100,> 100,> 100,> 100,> 100,> 100,> 100,> 100,> 100,> 100
CCOC(=O)/C=C(/C(=O)OCC)n1cc(C)c(=O)n(Cc2cn(COCCOC(C)=O)nn2)c1=O,5.33,> 90.2,28.8,> 78.3,63.2,52.7,26.3,> 100,> 100,> 100
O=c1[nH]c(=O)n(Cc2ccccc2CO)cc1Sc1ccccc1,> 100,> 100,> 100,60.6,> 100,45.2,39.9,> 100,> 100,> 100
